Earlier results on one compound are cited in patent publication US20030082215A1 (priority 1999, published 2003).

Read-outs that look alike come from different tables or passages of the source.

In general, bioavailability refers to the share of a dose that reaches the circulation, judged against a reference dose that is usually intravenous.

Turning to `CC(C)OC(=O)C(C)(C)Oc1ccc(C(=O)c2ccc(Cl)cc2)cc1` [fenofibrate], the bioavailability is given as 89% (conventional gelatin capsule form, after meals); 26% (conventional gelatin capsule form, on an empty stomach); about 30% (gelatin capsule containing a 300 mg dose, healthy volunteers).
